# Experimental data taken from patent US11358957B2, “Microbiocidal oxadiazole derivatives” (SYNGENTA PARTICIPATIONS AG, priority 2017, dated 2022).
# Legend:
# [1] = tested on: Glomerella lagenarium (Colletotrichum lagenarium); test: Fungicidal activity against Glomerella lagenarium (Colletotrichum lagenarium) liquid culture / cucumber / preventative (anthracnose); type: cell-based; details: Colletotrichum orbiculare; 20 ppm in the applied formulation; liquid culture (PDB), inhibition of growth measured photometrically 3 to 4 days after application; compared to untreated; read-out: disease control
# Protocol: Mycelia fragments or conidia suspensions of a fungus prepared either freshly from liquid cultures of the fungus or from cryogenic storage, are directly mixed into nutrient broth. DMSO solutions of the test compound (max. 10 mg/mL) are diluted with 0.025% Tween20 by a factor of 50 and 10 μL of this solution is pipetted into a microtiter plate (96-well format). The nutrient broth containing the fungal spores/mycelia fragments is then added to give an end concentration of the tested compound. The test plates are incubated in the dark at 24° C. and 96% relative humidity. The inhibition of fungal growth is determined photometrically after 2 to 7 days, depending on the pathosystem, and percent antifungal activity relative to the untreated check is calculated. Conidia of the fungus from cryogenic storage are directly mixed into nutrient broth (PDB—potato dextrose broth). After placing a (DMSO) solution of test compound into a microtiter plate (96-well format), the nutrient broth containing the fungal spores is added. The test plates are incubated at 24° C. and the inhibition of growth is measured photometrically 3 to 4 days after application. The following compounds at 20 ppm in the applied formulation give at least 80% disease control in this test when compared to untreated control under the same conditions, which show extensive disease development.
# [2] = tested on: Puccinia recondita f. Sp. Tritici; test: Fungicidal activity against Puccinia recondita f. sp. tritici / wheat / leaf disc preventative (brown rust); type: in vivo; details: foliar, 200 ppm in the applied formulation, wheat leaf segments cv. Kanzler, preventative (inoculated 1 day after application), compared to untreated, read-out: disease control
# Protocol: Leaf disks or leaf segments of various plant species are cut from plants grown in a greenhouse. The cut leaf disks or segments are placed in multiwell plates (24-well format) onto water agar. The leaf disks are sprayed with a test solution before (preventative) or after (curative) inoculation. Compounds to be tested are prepared as DMSO solutions (max. 10 mg/mL) which are diluted to the appropriate concentration with 0.025% Tween20 just before spraying. The inoculated leaf disks or segments are incubated under defined conditions (temperature, relative humidity, light, etc.) according to the respective test system. A single evaluation of disease level is carried out 3 to 14 days after inoculation, depending on the pathosystem. Percent disease control relative to the untreated check leaf disks or segments is then calculated. Wheat leaf segments cv. Kanzler were placed on agar in multiwell plates (24-well format) and sprayed with the formulated test compound diluted in water. The leaf disks were inoculated with a spore suspension of the fungus 1 day after application. The inoculated leaf segments were incubated at 19° C. and 75% relative humidity (rh) under a light regime of 12 hours light/12 hours darkness in a climate cabinet and the activity of a compound was assessed as percent disease control compared to untreated when an appropriate level of disease damage appears in untreated check leaf segments (7 to 9 days after application). The following compounds at 200 ppm in the applied formulation give at least 80% disease control in this test when compared to untreated control leaf disks under the same conditions, which show extensive disease development.
# [3] = tested on: Puccinia recondita f. Sp. Tritici; test: Fungicidal activity against Puccinia recondita f. sp. tritici / wheat / leaf disc curative (brown rust); type: in vivo; details: foliar, 24 h, 200 ppm in the applied formulation, wheat leaf segments cv. Kanzler, curative (applied 1 day after inoculation), compared to untreated, read-out: disease control
# Protocol: Leaf disks or leaf segments of various plant species are cut from plants grown in a greenhouse. The cut leaf disks or segments are placed in multiwell plates (24-well format) onto water agar. The leaf disks are sprayed with a test solution before (preventative) or after (curative) inoculation. Compounds to be tested are prepared as DMSO solutions (max. 10 mg/mL) which are diluted to the appropriate concentration with 0.025% Tween20 just before spraying. The inoculated leaf disks or segments are incubated under defined conditions (temperature, relative humidity, light, etc.) according to the respective test system. A single evaluation of disease level is carried out 3 to 14 days after inoculation, depending on the pathosystem. Percent disease control relative to the untreated check leaf disks or segments is then calculated. Wheat leaf segments cv. Kanzler are placed on agar in multiwell plates (24-well format). The leaf segments are then inoculated with a spore suspension of the fungus. Plates were stored in darkness at 19C and 75% relative humidity. The formulated test compound diluted in water was applied 1 day after inoculation. The leaf segments were incubated at 19° C. and 75% relative humidity under a light regime of 12 hours light/12 hours darkness in a climate cabinet and the activity of a compound was assessed as percent disease control compared to untreated when an appropriate level of disease damage appears in untreated check leaf segments (6 to 8 days after application). The following compounds at 200 ppm in the applied formulation give at least 80% disease control in this test when compared to untreated control leaf disks under the same conditions, which show extensive disease development.
SMILES,inhibition of growth at 20 ppm [1] [%],pest or weed control at 200 ppm [2] [%],pest or weed control at 200 ppm [3] [%]
"CC1(C)CC(=O)N(Cc2cc(-c3noc(C(F)(F)F)n3)cs2)O1 [Compound 1.28, 5,5-dimethyl-2-[[4-[5-(trifluoromethyl)-1,2,4-oxadiazol-3-yl]-2-thienyl]methyl] isoxazolidin-3-one]",≥ 80,–,–
"O=C(NC1CCCC1)c1ccnn1Cc1ccc(-c2noc(C(F)(F)F)n2)s1 [Compound 1.165, N-cyclopentyl-2-[[5-[5-(trifluoromethyl)-1,2,4-oxadiazol-3-yl]-2-thienyl]methyl]pyrazole-3-carboxamide]",≥ 80,≥ 80,–
"FC(F)(F)c1nc(-c2ccc(CN3CCC3)s2)no1 [Compound 1.20, 3-[5-(azetidin-1-ylmethyl)-2-thienyl]-5-(trifluoromethyl)-1,2,4-oxadiazole]",≥ 80,–,–
"Fc1cnn(Cc2ccc(-c3noc(C(F)(F)F)n3)s2)c1 [Compound 1.12, 3-[5-[(4-fluoropyrazol-1-yl)methyl]-2-thienyl]-5-(trifluoromethyl)-1,2,4-oxadiazole]",≥ 80,≥ 80,–
"CC(C)(C)NC(=O)c1ccnn1Cc1ccc(-c2noc(C(F)(F)F)n2)s1 [Compound 1.167, N-tert-butyl-2-[[5-[5-(trifluoromethyl)-1,2,4-oxadiazol-3-yl]-2-thienyl]methyl]pyrazole-3-carboxamide]",≥ 80,≥ 80,–
"CC(c1ccc(-c2noc(C(F)(F)F)n2)s1)n1cc(C(=O)NC2CCCC2)cn1 (stereo not drawn) [Compound 1.83, N-cyclopentyl-1-[1-[5-[5-(trifluoromethyl)-1,2,4-oxadiazol-3-yl]-2-thienyl]ethyl]pyrazole-4-carboxamide]",–,≥ 80,≥ 80
"FC(F)(F)c1nc(-c2ccc(Cn3cccn3)s2)no1 [Compound 1.7, 3-[5-(pyrazol-1-ylmethyl)-2-thienyl]-5-(trifluoromethyl)-1,2,4-oxadiazole]",≥ 80,≥ 80,–
"O=C(Nc1ccccc1)c1cnn(Cc2ccc(-c3noc(C(F)(F)F)n3)s2)c1 [Compound 1.115, N-phenyl-1-[[5-[5-(trifluoromethyl)-1,2,4-oxadiazol-3-yl]-2-thienyl]methyl]pyrazole-4-carboxamide]",≥ 80,≥ 80,–
"CCC(C)NC(=O)c1ccnn1Cc1ccc(-c2noc(C(F)(F)F)n2)s1 (stereo not drawn) [Compound 1.155, N-sec-butyl-2-[[5-[5-(trifluoromethyl)-1,2,4-oxadiazol-3-yl]-2-thienyl]methyl]pyrazole-3-carboxamide]",≥ 80,≥ 80,–
"Cc1cnn(Cc2ccc(-c3noc(C(F)(F)F)n3)s2)c1 [Compound 1.5, 3-[5-[(4-methylpyrazol-1-yl)methyl]-2-thienyl]-5-(trifluoromethyl)-1,2,4-oxadiazole]",≥ 80,≥ 80,–
"O=C(Nc1ccccc1)c1ccnn1Cc1ccc(-c2noc(C(F)(F)F)n2)s1 [Compound 1.162, N-phenyl-2-[[5-[5-(trifluoromethyl)-1,2,4-oxadiazol-3-yl]-2-thienyl]methyl]pyrazole-3-carboxamide]",≥ 80,≥ 80,–
"CC(c1ccc(-c2noc(C(F)(F)F)n2)s1)n1cc(C(=O)NC2CCCCC2)cn1 (stereo not drawn) [Compound 1.71, N-cyclohexyl-1-[1-[5-[5-(trifluoromethyl)-1,2,4-oxadiazol-3-yl]-2-thienyl]ethyl]pyrazole-4-carboxamide]",≥ 80,≥ 80,–
"O=C(NC1CCCCC1)c1ccnn1Cc1ccc(-c2noc(C(F)(F)F)n2)s1 [Compound 1.159, N-cyclohexyl-2-[[5-[5-(trifluoromethyl)-1,2,4-oxadiazol-3-yl]-2-thienyl]methyl]pyrazole-3-carboxamide]",≥ 80,≥ 80,–
"CC(C)NC(=O)c1ccnn1Cc1ccc(-c2noc(C(F)(F)F)n2)s1 [Compound 1.157, N-isopropyl-2-[[5-[5-(trifluoromethyl)-1,2,4-oxadiazol-3-yl]-2-thienyl]methyl]pyrazole-3-carboxamide]",≥ 80,≥ 80,–
"FC(F)(F)c1nc(-c2ccc(CN3CCOCC3)s2)no1 [Compound 1.18, 4-[[5-[5-(trifluoromethyl)-1,2,4-oxadiazol-3-yl]-2-thienyl]methyl]morpholine]",≥ 80,≥ 80,–
"CC1(C)CC(=O)N(Cc2ccc(-c3noc(C(F)(F)F)n3)s2)O1 [Compound 1.3, 5,5-dimethyl-2-[[5-[5-(trifluoromethyl)-1,2,4-oxadiazol-3-yl]-2-thienyl]methyl] isoxazolidin-3-one]",≥ 80,≥ 80,–
"Cc1cccc(=O)n1Cc1cc(-c2noc(C(F)(F)F)n2)cs1 [Compound 1.27, 6-methyl-1-[[4-[5-(trifluoromethyl)-1,2,4-oxadiazol-3-yl]-2-thienyl]methyl]pyridin-2-one]",≥ 80,–,–
"O=S1(=O)CCCN1Cc1cc(-c2noc(C(F)(F)F)n2)cs1 [Compound 1.29, 2-[[4-[5-(trifluoromethyl)-1,2,4-oxadiazol-3-yl]-2-thienyl]methyl]-1,2-thiazolidine 1,1-dioxide]",≥ 80,–,–
"CC(C)(C)CNC(=O)c1ccnn1Cc1ccc(-c2noc(C(F)(F)F)n2)s1 [Compound 1.156, N-(2,2-dimethylpropyl)-2-[[5-[5-(trifluoromethyl)-1,2,4-oxadiazol-3-yl]-2-thienyl]methyl]pyrazole-3-carboxamide]",≥ 80,≥ 80,–
"O=C1CCCCN1Cc1cc(-c2noc(C(F)(F)F)n2)cs1 [Compound 1.31, 1-[[4-[5-(trifluoromethyl)-1,2,4-oxadiazol-3-yl]-2-thienyl]methyl]piperidin-2-one]",≥ 80,–,–
"O=C(NCc1ccccc1)c1ccnn1Cc1ccc(-c2noc(C(F)(F)F)n2)s1 [Compound 1.163, N-benzyl-2-[[5-[5-(trifluoromethyl)-1,2,4-oxadiazol-3-yl]-2-thienyl]methyl]pyrazole-3-carboxamide]",≥ 80,≥ 80,–
"O=C(NC1CCCCC1)c1ncn(Cc2ccc(-c3noc(C(F)(F)F)n3)s2)n1 [Compound 1.149, N-cyclohexyl-1-[[5-[5-(trifluoromethyl)-1,2,4-oxadiazol-3-yl]-2-thienyl]methyl]-1,2,4-triazole-3-carboxamide]",≥ 80,≥ 80,–
"FC(F)(F)c1nc(-c2ccc(Cn3nnnc3-c3ccccc3Br)s2)no1 [Compound 1.10, 3-[5-[[5-(2-bromophenyl)tetrazol-1-yl]methyl]-2-thienyl]-5-(trifluoromethyl)-1,2,4-oxadiazole]",≥ 80,≥ 80,–
"FC(F)(F)c1nc(-c2ccc(CN3CCCC3)s2)no1 [Compound 1.15, 3-[5-(pyrrolidin-1-ylmethyl)-2-thienyl]-5-(trifluoromethyl)-1,2,4-oxadiazole]",≥ 80,–,–
